Measured values: ChEMBL document CHEMBL1777812, “New 1,4-di-N-oxide-quinoxaline-2-ylmethylene isonicotinic acid hydrazide derivatives as anti-Mycobacterium tuberculosis agents” (Bioorg Med Chem Lett, 2011)

How the values were obtained:
[1] = system: Mycobacterium tuberculosis; assay: Antimycobacterial activity against Mycobacterium tuberculosis H37Rv ATCC 27294 by microplate Alamar blue assay; assay type: functional, organism-based
[2] = Cytotoxicity against african green monkey Vero cells after 72 hrs by Cell titer Glo luminescent cell viability assay; assay type: cell-based; settings: chlorocebus sabaeus
[3] = Selectivity index, Ratio of CC50 for african green monkey Vero cells to IC90 for Mycobacterium tuberculosis H37Rv ATCC 27294; assay type: toxicity, cell-based

SMILES: COc1ccc2c(c1)[n+]([O-])c(C(=O)NCc1ccccc1)c(C)[n+]2[O-]
- IC50 [1]: 18.9 µM
- IC90 [1]: 36.4 µM

SMILES: Cc1c(C(=O)NCc2ccccc2)[n+]([O-])c2cc(Cl)ccc2[n+]1[O-]
- IC50 [1]: 1.1 µM
- IC90 [1]: 1.25 µM
- CC50 at 72 h [2]: > 291 µM
- selectivity ratio [3]: > 231

SMILES: Cc1ccc2c(c1)[n+]([O-])c(C(=O)NCc1ccccc1)c(C)[n+]2[O-]
- IC50 [1]: 8.35 µM
- IC90 [1]: 13 µM
- CC50 at 72 h [2]: > 309 µM
- selectivity ratio [3]: > 23.8

SMILES: Cc1c(C(=O)NCc2ccccc2)[n+]([O-])c2cc(C(F)(F)F)ccc2[n+]1[O-]
- IC50 [1]: < 0.81 µM
- IC90 [1]: 1.07 µM
- CC50 at 72 h [2]: > 265 µM
- selectivity ratio [3]: > 246

SMILES: Cc1c(C(=O)NCc2ccccc2)[n+]([O-])c2cc(F)ccc2[n+]1[O-]
- IC50 [1]: 2.83 µM
- IC90 [1]: 4.65 µM
- CC50 at 72 h [2]: > 306 µM
- selectivity ratio [3]: > 65.7

SMILES: Cc1c(C(=O)NCc2ccccc2)[n+]([O-])c2ccccc2[n+]1[O-]
- IC50 [1]: 4.91 µM
- IC90 [1]: 8.42 µM
- CC50 at 72 h [2]: > 323 µM
- selectivity ratio [3]: > 38.4

SMILES: Cc1cc2c(cc1C)[n+]([O-])c(C(=O)NCc1ccccc1)c(C)[n+]2[O-]
- IC50 [1]: 90.8 µM
- IC90 [1]: 296 µM

SMILES: Cc1c(/C=N/NC(=O)c2ccncc2)[n+]([O-])c2ccccc2[n+]1[O-]
- IC50 [1]: 1.17 µM
- IC90 [1]: 1.32 µM
- CC50 at 72 h [2]: > 124 µM
- selectivity ratio [3]: > 93

SMILES: Cc1c(/C=N/NC(=O)c2ccncc2)[n+]([O-])c2cc(Cl)ccc2[n+]1[O-]
- IC50 [1]: 1.04 µM
- IC90 [1]: 1.16 µM
- CC50 at 72 h [2]: 55.8 µM
- selectivity ratio [3]: 48.1

SMILES: COc1ccc2c(c1)[n+]([O-])c(/C=N/NC(=O)c1ccncc1)c(C)[n+]2[O-]
- IC50 [1]: < 0.59 µM
- IC90 [1]: 50.6 µM

SMILES: Cc1ccc2c(c1)[n+]([O-])c(/C=N/NC(=O)c1ccncc1)c(C)[n+]2[O-]
- IC50 [1]: 1.33 µM
- IC90 [1]: 18.2 µM
- CC50 at 72 h [2]: 52.1 µM
- selectivity ratio [3]: 2.86

SMILES: Cc1cc2c(cc1C)[n+]([O-])c(/C=N/NC(=O)c1ccncc1)c(C)[n+]2[O-]
- IC50 [1]: 1.22 µM
- IC90 [1]: 2.57 µM
- CC50 at 72 h [2]: > 124 µM
- selectivity ratio [3]: > 43.5

SMILES: Cc1c(/C=N/NC(=O)c2ccncc2)[n+]([O-])c2cc(F)ccc2[n+]1[O-]
- IC50 [1]: < 0.58 µM
- IC90 [1]: 23.1 µM
- CC50 at 72 h [2]: 76.5 µM
- selectivity ratio [3]: 3.31

SMILES: Cc1c(/C=N/NC(=O)c2ccncc2)[n+]([O-])c2cc(C(F)(F)F)ccc2[n+]1[O-]
- IC50 [1]: 1.5 µM
- IC90 [1]: 3.5 µM
- CC50 at 72 h [2]: 70 µM
- selectivity ratio [3]: 20

SMILES: NNC(=O)c1ccncc1 [ISONIAZID]
- IC90 [1]: 0.21 µM
- CC50 at 72 h [2]: > 500 µM
- selectivity ratio [3]: > 20000
